Measured values: patent US5288720A, “Angiotensin II receptor blocking 2,3,6 substituted quinazolinones” (American Cyanamid Company, priority 1993, dated 1994)
pIC50: −log10 of the molar value.

Molecular target: T1, Angiotensin II Receptor (Bos taurus, UniProt P25104)
T1 construct: The brownish tissue forming the adrenal cortex is scraped off and finely minced with scissors before homogenization; from tissue; host or cells: beef adrenal cortex, microsomal membranes (100,000×g pellet); fresh glands from a local slaughter house (Maxwell-Cohen)
T1 sequence (P25104 1-359): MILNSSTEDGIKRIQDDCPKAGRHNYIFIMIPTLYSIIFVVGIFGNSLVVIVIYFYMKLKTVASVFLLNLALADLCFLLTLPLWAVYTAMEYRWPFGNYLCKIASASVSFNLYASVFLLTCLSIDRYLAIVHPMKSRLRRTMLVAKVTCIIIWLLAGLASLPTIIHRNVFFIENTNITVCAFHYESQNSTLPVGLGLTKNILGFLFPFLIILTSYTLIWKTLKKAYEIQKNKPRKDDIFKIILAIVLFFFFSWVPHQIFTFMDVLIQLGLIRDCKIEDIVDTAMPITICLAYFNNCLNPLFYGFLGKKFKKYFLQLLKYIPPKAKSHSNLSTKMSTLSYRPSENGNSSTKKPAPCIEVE
Test: Receptor Binding Assay: Binding of [^125 I](Sar^1,Ile^8)AngII to beef adrenal cortex membranes
Conditions: 60 min, room temperature
How it was run: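 Competition binding of [125I](Sar1,Ile8)AngII (2200 Ci/mmole) to bovine adrenal cortex membranes (100,000×g pellet) in 50.0 mM Tris.HCl, pH 7.2, 0.1 mM PMSF. Compounds were added in DMSO and incubated 60 min at room temperature, in triplicate. Bound ligand was filtered onto PEI-presoaked filters and gamma-counted, with nonlinear analysis.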

Structure (SMILES) | pIC50
CCCCc1nc2ccc(C(OC)C3CCCO3)cc2c(=O)n1Cc1ccc(-c2ccccc2-c2nn[nH]n2)cc1 (single isomer, unassigned; isomer 1) [Example 23, 2-Butyl-6-[methoxy(tetrahydro-2-furanyl)methyl-3-[[2'-(1H-tetrazol-5-yl)[1,1'-biphenyl]-4-yl]-methyl]-4(3e,uns/H/ )-quinazolinone isomer 1] | 7.17
CCCCc1nc2ccc(C(OC)C3CCCN(C)C3=O)cc2c(=O)n1Cc1ccc(-c2ccccc2-c2nn[nH]n2)cc1 (single isomer, unassigned; isomer 1) [Example 42, 2-Butyl-6-methoxy(1-methyl-2-oxo-3-piperidinyl)methyl]-3-[[2' -1H-tetrazol-5-yl)[1,1'-biphenyl]-4-yl]methyl-4(3H)-quinazolinone isomer 1] | 7.04
CCCCc1nc2ccc(C(O)C3CCCN(C)C3=O)cc2c(=O)n1Cc1ccc(-c2ccccc2-c2nn[nH]n2)cc1 (single isomer, unassigned; isomer 2) [Example 38, 2-Butyl-6-hydroxy(1-methyl-2-oxo-3-piperidinyl)methyl-3-[[2'-(1H-tetrazol-5-yl)[1,1'-biphenyl]-4-yl]methyl-4(3H)-quinazolinone isomer 2] | 7.17
CCCCc1nc2ccc(C(OC)C3CCCN(C)C3=O)cc2c(=O)n1Cc1ccc(-c2ccccc2-c2nn[nH]n2)cc1 (single isomer, unassigned; isomer 2) [Example 43, 2-Butyl-6-[methoxy(1-methyl-2-oxo-3-piperidinyl)methyl]-3-[[2'-(1H-tetrazol-5-yl)[1,1'-biphenyl]-4-yl]methyl]-4(3H)-quinazoline isomer 2] | 7.15

Stronger by pIC50, values ahead:

pIC50 | Structure (SMILES)
7.39 | CCCCc1nc2ccc(C(O)C3CCN(C)C3=O)cc2c(=O)n1Cc1ccc(-c2ccccc2-c2nn[nH]n2)cc1 (single isomer, unassigned; isomer 1) [Example 32, 2-Butyl-6-[hydroxy(1-methyl-2-oxo-3-pyrrolidinyl)methyl]-3-[[2'-(1e,uns/H/ -tetrazol-5-yl)[1,1'-biphenyl]-4-yl]methyl]-4(3H)-quinazolinone isomer 1]
7.39 | CCCCc1nc2ccc(C(O)C3CCCN(C)C3=O)cc2c(=O)n1Cc1ccc(-c2ccccc2-c2nn[nH]n2)cc1 (single isomer, unassigned; isomer 1) [Example 37, 2-Butyl-6-hydroxy(1-methyl-2-oxo-3-piperidinyl)methyl]-3-[[2'-(1H-tetrazol-5-yl)[1,1'-biphenyl]-4-yl]methyl]-4(3H)-quinazolinone isomer 1]
7.42 | CCCCc1nc2ccc(C(OC)C3CCCO3)cc2c(=O)n1Cc1ccc(-c2ccccc2-c2nn[nH]n2)cc1 (single isomer, unassigned) [Example 24]
7.54 | CCCCc1nc2ccc(C(O)C3CCN(C)C3=O)cc2c(=O)n1Cc1ccc(-c2ccccc2-c2nn[nH]n2)cc1 (single isomer, unassigned; isomer 2) [Example 33, 2-Butyl-6-[hydroxy(1-methyl-2-oxo-3-pyrrolidinyl)methyl-3-[[2'-(1H-tetrazol-5-yl)[1,1'-biphenyl]-4-yl]methyl]-4(3H)-quinazolinone isomer 2]
